# How the values were obtained:
# [1] = molecular target: T1, hSTING (stimulator of interferon genes) (Homo sapiens, UniProt Q86WV6, H232R); experiment: isothermal titration calorimetry; DSF shift (+[…]°C); format: binding
# T1 construct: gene STING1; C-terminal domain, residues 149-341, C-terminal 6×His tag (WT = R232)
# [2] = molecular target: T2, hSTING (stimulator of interferon genes) (Homo sapiens, UniProt Q86WV6, G230A/H232R); experiment: isothermal titration calorimetry; DSF shift (+[…]°C); format: binding
# T2 construct: gene STING1; C-terminal domain, residues 149-341, C-terminal 6×His tag (WT = R232)
# T2 sequence (Q86WV6 149-341 G230A/H232R): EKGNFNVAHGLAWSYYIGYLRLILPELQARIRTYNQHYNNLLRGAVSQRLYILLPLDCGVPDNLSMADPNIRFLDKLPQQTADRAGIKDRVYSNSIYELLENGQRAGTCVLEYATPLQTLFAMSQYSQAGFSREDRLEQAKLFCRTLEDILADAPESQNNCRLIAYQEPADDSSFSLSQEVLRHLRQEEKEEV
# [3] = molecular target: T3, hSTING (stimulator of interferon genes) (Homo sapiens, UniProt Q86WV6); experiment: IFN-β luciferase reporter in STING-transfected, digitonin-permeabilized HEK293T cells (vector control inactive); format: cell-based
# T3 construct: gene STING1; hSTING cDNA with C-terminal Flag tag expressed in HEK293T cells
# T3 sequence (Q86WV6 whole entry): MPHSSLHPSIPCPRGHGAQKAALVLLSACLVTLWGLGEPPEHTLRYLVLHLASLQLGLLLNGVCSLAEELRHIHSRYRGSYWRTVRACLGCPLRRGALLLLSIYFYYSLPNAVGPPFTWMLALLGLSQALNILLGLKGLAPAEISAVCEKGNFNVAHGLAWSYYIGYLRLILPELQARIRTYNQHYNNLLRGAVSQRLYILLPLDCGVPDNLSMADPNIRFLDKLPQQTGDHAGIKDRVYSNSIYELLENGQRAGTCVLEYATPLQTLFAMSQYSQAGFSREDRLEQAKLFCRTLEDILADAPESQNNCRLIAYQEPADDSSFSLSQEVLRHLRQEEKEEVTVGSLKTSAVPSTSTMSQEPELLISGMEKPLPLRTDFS
# T1 sequence (Q86WV6 149-341 H232R): as the sequence (Q86WV6 149-341 G230A/H232R) above, with A82G counted along it
SMILES,Kd [1],Kd [2],"IFN-β luciferase reporter in STING-transfected, digitonin-permeabilized HEK293T [3]"
Nc1nc2c(ncn2[C@@H]2O[C@@H]3CO[P@](=O)(O)O[C@H]4[C@@H](O)[C@H](n5cnc6c(=O)[nH]c(N)nc65)O[C@@H]4CO[P@](=O)(O)O[C@H]3[C@H]2O)c(=O)[nH]1 [c-di-GMP],3300 nM,1900 nM,
Nc1ncnc2c1ncn2[C@@H]1O[C@@H]2COP(=O)(O)O[C@H]3[C@@H](O)[C@H](n4cnc5c(N)ncnc54)O[C@@H]3COP(=O)(O)O[C@H]2[C@H]1O [c-di-AMP],,,16.1 fold (ratio to unstimulated)
